# Data as given in publication PMC9760430, “A stapled chromogranin A-derived peptide homes in on tumors that express αvβ6 or αvβ8 integrins” (International Journal of Biological Sciences, 2023).
# Peptide text beside a SMILES is read from it. * marks the point of attachment. X1 = CC1(C)C(/C=C/C2=C(Oc3ccc(S(=O)(=O)O)cc3)C(=C\C=C3/N(CCCCCC(=O)NCCN4C(=O)CC(*)C4=O)c4ccc(S(=O)(=O)O)cc4C3(C)C)/CCC2)=[N+](CCCCS(=O)(=O)O)c2ccc(S(=O)(=O)[O-])cc21
# Molecular target: T1, murine αvβ8 (Mus musculus, UniProt P43406+Q0VBD0)
# T1 construct: purchased Bio-Techne
# T1 sequence (P43406 31-988 limits assumed): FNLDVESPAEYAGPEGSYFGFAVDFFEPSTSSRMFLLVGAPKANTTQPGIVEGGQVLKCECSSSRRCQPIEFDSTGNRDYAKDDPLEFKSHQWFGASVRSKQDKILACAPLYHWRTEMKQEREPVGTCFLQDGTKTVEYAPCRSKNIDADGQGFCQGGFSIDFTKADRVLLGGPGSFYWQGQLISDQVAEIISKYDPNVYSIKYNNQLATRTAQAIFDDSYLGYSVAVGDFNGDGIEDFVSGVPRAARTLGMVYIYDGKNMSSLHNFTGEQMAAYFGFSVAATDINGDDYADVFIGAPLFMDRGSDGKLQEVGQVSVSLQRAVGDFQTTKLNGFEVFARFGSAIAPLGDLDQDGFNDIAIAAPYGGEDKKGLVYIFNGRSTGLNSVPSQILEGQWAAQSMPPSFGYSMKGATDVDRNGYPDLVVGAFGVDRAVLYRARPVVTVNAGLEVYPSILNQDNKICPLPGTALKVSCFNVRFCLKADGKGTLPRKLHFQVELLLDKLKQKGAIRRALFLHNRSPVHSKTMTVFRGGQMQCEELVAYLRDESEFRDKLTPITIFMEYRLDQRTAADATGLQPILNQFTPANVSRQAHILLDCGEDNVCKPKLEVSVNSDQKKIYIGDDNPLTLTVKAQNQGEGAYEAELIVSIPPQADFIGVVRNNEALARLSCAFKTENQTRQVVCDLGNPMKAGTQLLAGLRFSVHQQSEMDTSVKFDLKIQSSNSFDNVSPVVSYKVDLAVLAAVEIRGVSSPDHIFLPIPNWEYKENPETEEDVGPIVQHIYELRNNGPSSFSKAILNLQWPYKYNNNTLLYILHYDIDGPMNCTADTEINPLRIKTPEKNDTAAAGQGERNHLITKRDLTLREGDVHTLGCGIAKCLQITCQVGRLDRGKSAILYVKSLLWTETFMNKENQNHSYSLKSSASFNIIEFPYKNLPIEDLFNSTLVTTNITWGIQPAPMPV
# T1 sequence (Q0VBD0 43-682 limits assumed): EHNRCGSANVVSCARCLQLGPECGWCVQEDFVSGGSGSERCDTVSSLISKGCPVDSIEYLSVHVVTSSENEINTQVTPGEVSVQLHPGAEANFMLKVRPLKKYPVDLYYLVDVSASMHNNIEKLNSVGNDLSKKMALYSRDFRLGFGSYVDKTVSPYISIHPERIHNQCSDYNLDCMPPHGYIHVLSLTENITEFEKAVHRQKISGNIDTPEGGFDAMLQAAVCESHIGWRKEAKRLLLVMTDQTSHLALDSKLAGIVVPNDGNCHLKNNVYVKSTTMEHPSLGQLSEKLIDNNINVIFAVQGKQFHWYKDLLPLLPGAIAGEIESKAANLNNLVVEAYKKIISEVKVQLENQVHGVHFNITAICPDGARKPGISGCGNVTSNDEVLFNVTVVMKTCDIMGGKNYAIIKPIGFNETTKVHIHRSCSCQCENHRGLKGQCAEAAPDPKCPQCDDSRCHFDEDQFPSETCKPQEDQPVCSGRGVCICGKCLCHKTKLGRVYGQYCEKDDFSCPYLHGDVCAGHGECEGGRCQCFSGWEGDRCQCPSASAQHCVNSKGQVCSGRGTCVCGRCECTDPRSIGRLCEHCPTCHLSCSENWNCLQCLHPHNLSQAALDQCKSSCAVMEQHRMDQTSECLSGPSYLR
# Assay: direct integrin binding assay of peptide-IRDye conjugates, murine αvβ8-coated plates
# Conditions: plates coated with recombinant murine αvβ8; conjugate 0.01-100 nM, 1 h; bound NIR fluorescence; mean ± SE, n = 3 experiments
# Description: The affinity of peptide-IRDye conjugates for αvβ6 and αvβ8 integrins was determined by a direct binding assay using microtiter plates coated with αvβ6 or αvβ8 (Bio-Techne). After 1 h of incubation, the plates were washed; bound fluorescence was quantified by scanning the plates with an Odyssey CLx near-infrared fluorescence imaging system (LI-COR).
# A control conjugate with a cysteine in place of the peptide was also prepared in parallel. […]
# The simplified molecular-input line-entry system (SMILES) of 5a-, 2a-, Cys- and 5a-Scr- […]
# The concentration of each conjugate was quantified by spectrophotometric analysis at 774 nm (molar absorption coefficient, 240,000 M-1, cm-1) (Figure S3B). The final yield of 5a-IRDye […]
# Binding of peptide-IRDye conjugates to avb6 and avb8 integrin […]
# conjugates were added to the microtiterplates and incubated at room temperature for 1 h (see Experimental Section). After washing, bound fluorescence was measured using an Odyssey CLx (LI-COR) scanner. Representative images of the scanned plates and quantification of binding are shown. […]
row,Structure (SMILES),EC50
1,CC1(C)C(/C=C/C2=C(Oc3ccc(S(=O)(=O)O)cc3)C(=C\C=C3/N(CCCCCC(=O)NCCN4C(=O)CC(SC[C@H](N)C(=O)O)C4=O)c4ccc(S(=O)(=O)O)cc4C3(C)C)/CCC2)=[N+](CCCCS(=O)(=O)O)c2ccc(S(=O)(=O)[O-])cc21 (some centres unmarked) [Cys-IRDye],> 100 nM
2,CC[C@H](C)[C@H](NC(=O)[C@H](CCCNC(=N)N)NC(=O)[C@H](CCC(=O)O)NC(=O)[C@H](CCC(=O)O)NC(=O)CNC(=O)[C@H](CCCNC(=N)N)NC(=O)[C@H](CC(C)C)NC(=O)[C@@H](NC(=O)[C@H](CCC(=O)O)NC(=O)[C@H](Cc1ccccc1)NC(=O)[C@@H](N)CSC1CC(=O)N(CCNC(=O)CCCCCN2/C(=C\C=C3\CCCC(/C=C/C4=[N+](CCCCS(=O)(=O)O)c5ccc(S(=O)(=O)[O-])cc5C4(C)C)=C3Oc3ccc(S(=O)(=O)O)cc3)C(C)(C)c3cc(S(=O)(=O)O)ccc32)C1=O)[C@@H](C)O)C(=O)N[C@@H](CC(C)C)C(=O)N[C@@H](CO)C(=O)N[C@H](C(=O)N[C@@H](CC(C)C)C(=O)N[C@@H](CCCNC(=N)N)C(=O)N[C@@H](Cc1c[nH]cn1)C(=O)N[C@@H](CCC(N)=O)C(=O)N[C@@H](CC(N)=O)C(=O)N[C@@H](CC(C)C)C(=O)N[C@@H](CC(C)C)C(=O)N[C@@H](CCCCN)C(=O)N[C@@H](CCC(=O)O)C(=O)N[C@@H](CC(C)C)C(=O)N[C@@H](CCC(N)=O)C(=O)N[C@@H](CC(=O)O)C(N)=O)[C@@H](C)CC (some centres unmarked) [2a-IRDye] (H-C(X1)FETLRGEERILSILRHQNLLKELQD-NH2),> 100 nM
